Data published in US7858635B2 (priority 2005, dated 2010).

How the values were obtained:
[1] = target: T1, M4 muscarinic receptor (Homo sapiens, UniProt P08173); assay: Functional mobilization of intracellular calcium (FLIPR, Fluo-3), M4-CHO cells; assay type: cell-based; conditions: compound nos. 1-454; for Emax: 100% efficacy is the maximum response obtained with the Carbachol control, read-out: M4 Efficacy; for M4 Activity: M4-CHO cells, calcium mobilization
T1 construct: expressed in transfected cells; host or cells: CHO cells (M4-CHO, under puromycin, zeocin and blasticidin selection)
T1 sequence (P08173 1-479): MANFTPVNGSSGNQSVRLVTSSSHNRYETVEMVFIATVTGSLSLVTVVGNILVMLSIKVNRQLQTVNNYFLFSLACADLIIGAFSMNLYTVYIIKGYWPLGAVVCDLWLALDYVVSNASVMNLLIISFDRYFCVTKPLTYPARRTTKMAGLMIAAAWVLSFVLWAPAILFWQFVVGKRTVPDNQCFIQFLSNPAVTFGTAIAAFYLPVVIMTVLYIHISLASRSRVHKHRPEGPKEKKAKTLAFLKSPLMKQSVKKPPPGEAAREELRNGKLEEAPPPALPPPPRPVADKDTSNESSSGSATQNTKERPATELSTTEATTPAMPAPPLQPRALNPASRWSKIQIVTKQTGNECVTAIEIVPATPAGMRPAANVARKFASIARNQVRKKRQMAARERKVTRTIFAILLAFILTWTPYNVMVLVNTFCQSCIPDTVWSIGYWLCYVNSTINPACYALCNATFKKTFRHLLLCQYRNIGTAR
Outline: (§1)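 CHO lines stably carrying the muscarinic subtype, dye-loaded with Fluo-3 at 37° C for 60-90 min, receive test compound in 0.5% DMSO. Agonist effects are read directly; antagonist effects against carbachol at EC80 after 15 min pre-incubation.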

[2] = target: T2, M1 muscarinic receptor (Homo sapiens, UniProt P11229); assay: Functional mobilization of intracellular calcium (FLIPR, Fluo-3), M1-CHO cells; assay type: cell-based; conditions: compound nos. 1-454; for Emax: 100% efficacy is the maximum response obtained with the Carbachol control, read-out: M1 Efficacy; for M1 Activity: M1-CHO cells, calcium mobilization
T2 construct: expressed in transfected cells; host or cells: CHO cells (M1-CHO, under zeocin and G418 selection)
T2 sequence (P11229 1-460): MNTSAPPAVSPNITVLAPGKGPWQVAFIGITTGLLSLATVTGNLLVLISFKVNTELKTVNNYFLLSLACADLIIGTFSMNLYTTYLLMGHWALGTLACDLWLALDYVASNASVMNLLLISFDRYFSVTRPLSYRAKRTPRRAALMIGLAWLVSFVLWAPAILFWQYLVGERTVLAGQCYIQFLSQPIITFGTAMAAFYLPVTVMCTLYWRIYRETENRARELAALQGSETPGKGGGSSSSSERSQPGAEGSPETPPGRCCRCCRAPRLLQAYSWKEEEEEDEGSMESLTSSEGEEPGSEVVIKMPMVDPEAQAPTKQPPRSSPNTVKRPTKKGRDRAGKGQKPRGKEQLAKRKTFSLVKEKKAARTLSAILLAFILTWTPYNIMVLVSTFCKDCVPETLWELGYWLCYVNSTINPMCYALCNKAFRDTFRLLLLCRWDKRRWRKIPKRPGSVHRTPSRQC
Outline: as §1

Row | SMILES | Emax [1] [%] | M4 Activity [1] | Emax [2] [%] | M1 Activity [2]
1 | CCOC(=O)N1C2CCC1CC(N1CCC3(CC1)CNc1ccccc13)C2 (stereo not shown) [compound 153] | > 70 | +++ (activity was measured to be less than or equal to 0.1 μM) | > 85 | +++ (activity was measured to be less than or equal to 0.7 μM)
2 | COC(=O)N1CCC(N2CCC3(CC2)CN(C(=O)N(C)C)c2ccc(F)cc23)CC1 [compound 154] | > 70 | +++ (activity was measured to be less than or equal to 0.1 μM) | 65 to 85 | +++ (activity was measured to be less than or equal to 0.7 μM)
3 | Clc1ccc2c(c1)C1(CCN(C3CCCCC3)CC1)CN2 [compound 155] | > 70 | + (activity was measured to be greater than or equal to 4.0 μM) | > 85 | +++ (activity was measured to be less than or equal to 0.7 μM)
4 | COC(=O)N1C2CCC1CC(N1CCC3(CC1)COc1ccc(F)cc13)C2 (stereo not shown) [compound 156] | > 70 | +++ (activity was measured to be less than or equal to 0.1 μM) | 65 to 85 | +++ (activity was measured to be less than or equal to 0.7 μM)
5 | Clc1ccc2c(c1)C1(CCN(CC3CCCCC3)CC1)CN2 [compound 157] | > 70 | + (activity was measured to be greater than or equal to 4.0 μM) | 65 to 85 | +++ (activity was measured to be less than or equal to 0.7 μM)
6 | CC(=O)N[C@H]1CC2(CCN([C@@H]3C[C@@H]4CC[C@@H]3C4)CC2)c2ccccc21 [compound 158] | > 70 | + (activity was measured to be greater than or equal to 4.0 μM) | > 85 | +++ (activity was measured to be less than or equal to 0.7 μM)
7 | CC(=O)NC1CC2(CCN(C3CCCCCC3)CC2)c2ccccc21 (stereo not shown) [compound 159] | > 70 | + (activity was measured to be greater than or equal to 4.0 μM) | > 85 | ++ (activity was measured to be between 0.7 μM and 3.0 μM)
8 | CC(C)COC(=O)N1C2CCC1CC(N1CCC3(CC1)COc1ccc(F)cc13)C2 (stereo not shown) [compound 160] | > 70 | ++ (activity was measured to be between 0.1 μM and 4.0 μM) | > 85 | +++ (activity was measured to be less than or equal to 0.7 μM)
9 | CC(=O)NC1CC2(CCN(C[C@H]3C[C@H]4CC[C@H]3C4)CC2)c2ccccc21 (stereo partly shown) [compound 161] | > 70 | + (activity was measured to be greater than or equal to 4.0 μM) | > 85 | ++ (activity was measured to be between 0.7 μM and 3.0 μM)
10 | CC(=O)N1CC2(CCN(CC3=CCCCC3)CC2)c2cc(F)ccc21 [compound 163] | > 70 | ++ (activity was measured to be between 0.1 μM and 4.0 μM) | 65 to 85 | +++ (activity was measured to be less than or equal to 0.7 μM)
11 | Clc1ccc2c(c1)C1(CCO2)CCN(C[C@@H]2C[C@H]3C=C[C@H]2C3)CC1 [compound 164] | > 70 | + (activity was measured to be greater than or equal to 4.0 μM) | > 85 | ++ (activity was measured to be between 0.7 μM and 3.0 μM)
12 | CCOC(=O)N1CCC(N2CCC3(CC2)CN(C(C)=O)c2ccc(-c4ccsc4)cc23)CC1 [compound 165] | > 70 | + (activity was measured to be greater than or equal to 4.0 μM) | 65 to 85 | + (activity was measured to be greater than or equal to 3.0 μM)
13 | CC(C)OC(=O)N1C2CCC1CC(N1CCC3(CC1)CN(C(=O)OC1CCC1)c1ccc(F)cc13)C2 (stereo not shown) [compound 166] | > 70 | + (activity was measured to be greater than or equal to 4.0 μM) | > 85 | +++ (activity was measured to be less than or equal to 0.7 μM)
14 | CCOC(=O)N1C2CCC1CC(N1CCC3(CC1)CN(C(=O)OC)c1ccc(F)cc13)C2 (stereo not shown) [compound 167] | > 70 | ++ (activity was measured to be between 0.1 μM and 4.0 μM) | 65 to 85 | +++ (activity was measured to be less than or equal to 0.7 μM)
15 | CC(=O)N1CC2(CCN(C3CCCN(C(=O)OCCF)CC3)CC2)c2cc(F)ccc21 (stereo not shown) [compound 168] | > 70 | ++ (activity was measured to be between 0.1 μM and 4.0 μM) | – | ++ (activity was measured to be between 0.7 μM and 3.0 μM)
16 | CCOC(=O)N1CCC(N2CCC3(CC2)CN(C(=O)N(C)c2ccccc2)c2ccc(F)cc23)CC1 [compound 169] | > 70 | + (activity was measured to be greater than or equal to 4.0 μM) | 65 to 85 | +++ (activity was measured to be less than or equal to 0.7 μM)
17 | CC(C)OC(=O)N1C2CCC1CC(N1CCC3(CC1)CN(S(C)(=O)=O)c1ccc(F)cc13)C2 (stereo not shown) [compound 170] | > 70 | + (activity was measured to be greater than or equal to 4.0 μM) | 65 to 85 | ++ (activity was measured to be between 0.7 μM and 3.0 μM)
18 | CC(=O)N[C@@H]1CC2(CCN([C@H]3C[C@@H]4CC[C@H]3C4)CC2)c2ccccc21 [compound 171] | 55 to 70 | + (activity was measured to be greater than or equal to 4.0 μM) | > 85 | ++ (activity was measured to be between 0.7 μM and 3.0 μM)
19 | CC(=O)N1CC2(CCN(C3CCN(C(=O)OCCF)CC3)CC2)c2cc(F)ccc21 [compound 172] | 55 to 70 | + (activity was measured to be greater than or equal to 4.0 μM) | > 85 | + (activity was measured to be greater than or equal to 3.0 μM)
20 | CCOC(=O)N1CCC(N2CCC3(CC2)CN(C(=O)OC)c2ccc(F)cc23)CC1 [compound 173] | > 70 | ++ (activity was measured to be between 0.1 μM and 4.0 μM) | 65 to 85 | +++ (activity was measured to be less than or equal to 0.7 μM)
21 | CC(=O)N1CC2(CCN(C3CC4CCC(C3)N4C(=O)OC3CCC3)CC2)c2cc(F)ccc21 (stereo not shown) [compound 174] | 55 to 70 | + (activity was measured to be greater than or equal to 4.0 μM) | > 85 | +++ (activity was measured to be less than or equal to 0.7 μM)
22 | Fc1ccc2c(c1)C1(CCN([C@@H]3C[C@@H]4CC[C@H]3C4)CC1)CO2 [compound 175] | 55 to 70 | ++ (activity was measured to be between 0.1 μM and 4.0 μM) | 65 to 85 | +++ (activity was measured to be less than or equal to 0.7 μM)
23 | CCOC(=O)N1CCC(CN2CCC3(CC2)COc2ccc(Cl)cc23)CC1 [compound 176] | 55 to 70 | ++ (activity was measured to be between 0.1 μM and 4.0 μM) | > 85 | ++ (activity was measured to be between 0.7 μM and 3.0 μM)
24 | CCOC(=O)N1CCC(N2CCC3(CC2)CN(C(C)=O)c2ccc(-c4ccc(S(C)(=O)=O)cc4)cc23)CC1 [compound 177] | 55 to 70 | ++ (activity was measured to be between 0.1 μM and 4.0 μM) | 65 to 85 | +++ (activity was measured to be less than or equal to 0.7 μM)
25 | Clc1ccc2c(c1)C1(CCO2)CCN(C2CCOCC2)CC1 [compound 178] | 55 to 70 | + (activity was measured to be greater than or equal to 4.0 μM) | > 85 | ++ (activity was measured to be between 0.7 μM and 3.0 μM)
26 | CCOC(=O)N1C2CCC1CC(N1CCC3(CC1)CN(C(=O)C1CCC1)c1ccc(F)cc13)C2 (stereo not shown) [compound 179] | 55 to 70 | + (activity was measured to be greater than or equal to 4.0 μM) | > 85 | ++ (activity was measured to be between 0.7 μM and 3.0 μM)
